Reference: US11339130B1 (Blade Therapeutics, Inc., priority 2016, dated 2022)
pIC50: −log10 of the molar value. Read-outs that look alike come from different tables or passages of the source. One block for each molecule: values may come before it.

Columns and labels:
[1] = tested on: Calpain activity in SH-SY5Y cells; experiment: SH-SY5Y + AMC fluorescence assay (Suc-LLVY-AMC substrate); format: cell-based; conditions: read-out: SH-SY5Y + AMC IC50
human calpain 9 = target: T1, human calpain 9 (Homo sapiens, UniProt O14815); experiment: Calpain binding: crystal structure interaction distances, human calpain 9; conditions: for Interaction Distances P1-Gly95 / Interaction Distances P1-Gly189 / Interaction Distances P1-Lys188 / Interaction Distances P1-Ser242 / Interaction Distances P2-Ala255 / Interaction Distances P2-Gly190 / Interaction Distances P2-Gly253 / Interaction Distances P2-His254 / Interaction Distances P2-Phe233 / Interaction Distances P3-Gly189 / Interaction Distances P3-Gly190 / Interaction Distances P3-Ser191: non-polar interactions with human calpain 9; for Interaction Distances R^10-Gly253 / Interaction Distances R^11-Gly190 / Interaction Distances R^12-His254 / Interaction Distances R^13-Cys97 / Interaction Distances R^13-Gln91: polar interactions with human calpain 9
T1 construct: human calpain 9, residues 27-347, was over expressed in E. coli BL21 (DE3); hexa-histidine (N); made in house; host or cells: E. coli BL21 (DE3)
T1 sequence (O14815 27-347): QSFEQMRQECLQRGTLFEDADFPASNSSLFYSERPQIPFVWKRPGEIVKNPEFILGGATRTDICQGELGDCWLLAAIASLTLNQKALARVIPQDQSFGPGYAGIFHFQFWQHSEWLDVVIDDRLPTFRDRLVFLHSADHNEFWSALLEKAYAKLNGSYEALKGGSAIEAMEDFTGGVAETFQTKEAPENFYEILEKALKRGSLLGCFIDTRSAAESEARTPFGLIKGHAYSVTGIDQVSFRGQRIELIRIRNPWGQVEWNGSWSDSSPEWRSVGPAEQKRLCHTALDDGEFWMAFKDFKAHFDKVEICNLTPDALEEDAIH
Description: Calpain 9 Protein Preparation: N-terminally hexa-histidine-tagged human calpain 9, residues 27-347, was over expressed in E. coli BL21 (DE3) and purified via Ni-NTA and size-exclusion chromatography with yields >10 mg/liter of culture and >99% purity. The calpain 9 sequence is accession number 014815 at uniprot.org.
Calpain 9 Crystallization: A 10 mg/ml solution of rat calpain 1 or human calpain 9 (obtained as described above) was prepared in 50 mM tris (pH 8), 0.5 M NaCl, 1 mM EDTA, 1 mM CaCl2), and 1 mM beta-mercaptoethanol against MCSG1 screen condition C2 (Anatrace, Maumee, Ohio) containing 0.2 M LiSO4, 0.1 M bis-tris (pH 5.5), and 25% PEG 3350. The solution contained 2.5 mM of test compound supplemented with 20% ethylene glycol as a cryo-protectant. The bound protein was crystallized using vapor diffusion, sitting drop, at […]. The space group was P 41 21 2, with unit cell dimensions of 97.2 Å, 97.2 Å, 173.4 Å.
Calpain 9 Crystallography data collection and refinement: Data was collected at the APS synchrotron, beamline 21-ID-F at […]. Reflections were collect between 45.0-2.1 Å with completeness of 100%. Reflection data was analyzed using XDS and Xscale (Heidelberg, Germany). Structure was solved using molecular replacement and was refined with PHENIX (Berkeley, Calif.) to an R value of 0.168, Rfree=0.210.
Key interactions between test compound moieties (with reference to the variables of Formula II) and calpain 1 or calpain 9 residues were determined as set forth in Tables 4-7 below.

[2] = tested on: Calpain activity in SH-SY5Y cells (SBDP-150); experiment: SH-SY5Y Spectrin western blot assay (SBDP-150 breakdown product, A23187-induced); format: cell-based; conditions: Homo sapiens, SH-SY5Y cells, read-out: SH-SY5Y Spectrin IC50
[3] = tested on: Bleomycin-induced pulmonary fibrosis; experiment: Bleomycin-induced pulmonary fibrosis in mice (14 d); format: in vivo; design: concentration or dose not given beside the values
Description: The method for inducing pulmonary fibrosis in mice is described in Current Protocols in Pharmacology: 5.46.1, entitled “Mouse Models of Bleomycin-induced Pulmonary Fibrosis”. In order to induce pulmonary fibrosis, 6-8 week old C57B1/6 mice or Wistar rats are instilled once oropharyngeally with ˜1.5 U/kg of bleomycin sulfate (Calbiochem, Billerica, Mass.). Briefly, for oropharyngeal administration of bleomycin, mice or rats are anesthetized with isofluorane and then suspended on its back at a˜60 degree angle on an inclined surface with a rubber band running under the upper incisors. The airway is opened while securing the tongue with one arm of padded forceps and bleomycin is administered into the back of the oral cavity with a syringe. The animal's tongue and mouth were held open until the liquid disappeared from the oral cavity. The animal was then returned to its cage and monitored until fully recovered from the anesthesia. The study is terminated on day 14-28 for oropharyngeally administered bleomycin in mice and rats. All animals are euthanized at the termination of the studies by cervical dislocation for gross necropsy, and blood collected by cardiac puncture. The lungs from each animal are dissected from the animal and weighed. The BAL cells and fluid are collected by lavaging the lung twice with 0.5 ml Hanks Balanced Salt Solution (HBSS; VWR, Radnor, Pa.). After collection of BAL cells and fluid, lungs are dissected and removed from each animal. Whole lungs are inflated with 10% NBF and then fixed in 10% NBF for histology. Severity of fibrosis in the lungs is evaluated using a modified Ashcroft score (Hubner, Biotechniques, 2008) and subjective fibrosis scores. Lung sections were graded by averaging 5 microscopic fields at 20× on an Ashcroft scale as follows: Grade 0=normal lung; Grade 1=minimally detectable thickening of alveolar walls; Grade 2=Mild thickening of alveolar walls. Grade 3=moderate contiguous thickening of walls with fibrous nodules; Grade 4=Thickened septae and confluent fibrotic masses that total less than 10% of microscopic field. Grade 5=increased fibrosis with definite damage to lung structure and formation of fibrous bands or small fibrous masses between 10 and 50% of microscopic field; Grade 6=Large contiguous fibrotic masses consolidating more than 50% of microscopic field. Grade 7=severe distortion of structure and large fibrous areas; Grade 8=total fibrous obliteration of lung within microscopic field. Each slide was examined at 20× magnification and the score for 5 separate representative fields was averaged for each animal. Subjective scores (H&E and Trichrome-stained slides) were evaluated at 2× magnification for an overall assessment of pathologic change. A score of 0=no detectible findings to 5=complete involvement of consolidation. Scores in each group were averaged and standard error was calculated using Excel 2010. Dense, organized inflammatory exudates were scored as fibrosis. Other tissues were evaluated microscopically and scored routinely.

[4] = Column D, A23187-induced SBDP-150
[5] = A23187-induced SBDP-150, western blot

pIC50 ([1]; Column E): < 4.60
Interaction Distances P1-Gly95 (human calpain 9): 4.0 Å
Interaction Distances P1-Gly189 (human calpain 9): 3.5 Å
Interaction Distances P1-Lys188 (human calpain 9): 3.8 Å
Interaction Distances P1-Ser242 (human calpain 9): 3.6 Å
Interaction Distances P2-Ala255 (human calpain 9): 4.3 Å
Interaction Distances P2-Gly190 (human calpain 9): 3.3 Å
Interaction Distances P2-Gly253 (human calpain 9): 3.1 Å
Interaction Distances P2-His254 (human calpain 9): 4.2 Å
Interaction Distances P2-Phe233 (human calpain 9): 3.3 Å
Interaction Distances P3-Gly189 (human calpain 9): 3.7 Å
Interaction Distances P3-Gly190 (human calpain 9): 3.5 Å
Interaction Distances P3-Ser191 (human calpain 9): 4.4 Å
Interaction Distances R^10-Gly253 (human calpain 9): 3.2 Å
Interaction Distances R^11-Gly190 (human calpain 9): 2.9 Å
Interaction Distances R^12-His254 (human calpain 9): 2.7 Å
Interaction Distances R^13-Cys97 (human calpain 9): 2.9 Å
Interaction Distances R^13-Gln91 (human calpain 9): 2.8 Å
pIC50 [2, 4]: > 5.00
SMILES: Cn1cc(C(=O)N[C@@H](Cc2ccccc2)C(=O)C(N)=O)c(-c2ccccc2)n1 [Compound 32, (S)—N-(4-amino-3,4-dioxo-1-phenylbutan-2-yl)-1-methyl-3-phenyl-1H-pyrazole-4-carboxamide]

pIC50 ([1]; Column E): < 4.60
Interaction Distances P1-Gly95 (human calpain 9): 3.6 Å
Interaction Distances P1-Gly189 (human calpain 9): 3.4 Å
Interaction Distances P1-Lys188 (human calpain 9): 3.7 Å
Interaction Distances P1-Ser242 (human calpain 9): 3.7 Å
Interaction Distances P2-Ala255 (human calpain 9): 3.9 Å
Interaction Distances P2-Gly190 (human calpain 9): 3.0 Å
Interaction Distances P2-Gly253 (human calpain 9): 3.4 Å
Interaction Distances P2-His254 (human calpain 9): 4.2 Å
Interaction Distances P2-Phe233 (human calpain 9): 4.4 Å
Interaction Distances P3-Gly189 (human calpain 9): 4.0 Å
Interaction Distances P3-Gly190 (human calpain 9): 3.3 Å
Interaction Distances P3-Ser191 (human calpain 9): 4.2 Å
Interaction Distances R^10-Gly253 (human calpain 9): 2.9 Å
Interaction Distances R^11-Gly190 (human calpain 9): 3.2 Å
Interaction Distances R^12-His254 (human calpain 9): 2.5 Å
Interaction Distances R^13-Cys97 (human calpain 9): 3.0 Å
Interaction Distances R^13-Gln91 (human calpain 9): 2.8 Å
pIC50 [2, 4]: 4.60 to 5.00
SMILES: NC(=O)C(=O)[C@H](Cc1ccccc1)NC(=O)c1snnc1-c1ccccc1 [Compound 44, (S)—N-(4-amino-3,4-dioxo-1-phenylbutan-2-yl)-4-phenyl-1,2,3-thiadiazole-5-carboxamide]

pIC50 ([1]; Column E): > 5.00
pIC50 [2, 4]: > 5.00
SMILES: NC(=O)C(=O)[C@H](Cc1ccccc1)NC(=O)c1cnoc1-c1ccccc1 [Compound 60, (S)—N-(4-amino-3,4-dioxo-1-phenylbutan-2-yl)-5-phenylisoxazole-4-carboxamide]
% reduction compared to vehicle [3]: −24%

pIC50 ([1]; Column E): 4.60 to 5.00
pIC50 [2, 4]: 4.60 to 5.00
SMILES: NC(=O)C(=O)[C@H](Cc1ccccc1)NC(=O)c1cn(C2CC2)nc1-c1ccccc1 [Compound 250, (S)—N-(4-amino-3,4-dioxo-1-phenylbutan-2-yl)-1-cyclopropyl-3-phenyl-1H-pyrazole-4-carboxamide]

pIC50 ([1]; Column E): < 4.60
Interaction Distances P1-Gly95 (human calpain 9): 3.7 Å
Interaction Distances P1-Gly189 (human calpain 9): 3.7 Å
Interaction Distances P1-Lys188 (human calpain 9): 4.4 Å
Interaction Distances P1-Ser242 (human calpain 9): 4.0 Å
Interaction Distances P2-Ala255 (human calpain 9): 4.1 Å
Interaction Distances P2-Gly190 (human calpain 9): 3.2 Å
Interaction Distances P2-Gly253 (human calpain 9): 2.9 Å
Interaction Distances P2-His254 (human calpain 9): 4.2 Å
Interaction Distances P2-Phe233 (human calpain 9): 3.3 Å
Interaction Distances P3-Gly189 (human calpain 9): 3.8 Å
Interaction Distances P3-Gly190 (human calpain 9): 3.4 Å
Interaction Distances P3-Ser191 (human calpain 9): 3.8 Å
Interaction Distances R^10-Gly253 (human calpain 9): 2.9 Å
Interaction Distances R^11-Gly190 (human calpain 9): 3.2 Å
Interaction Distances R^12-His254 (human calpain 9): 2.4 Å
Interaction Distances R^13-Cys97 (human calpain 9): 3.1 Å
Interaction Distances R^13-Gln91 (human calpain 9): 2.9 Å
pIC50 [2, 4]: > 5.00
SMILES: CCCC[C@H](NC(=O)c1oc(C)nc1-c1ccccc1)C(=O)C(N)=O [Compound 265, (S)—N-(1-amino-1,2-dioxoheptan-3-yl)-2-methyl-4-phenyloxazole-5-carboxamide]

pIC50 [1]: > 5.00
pIC50 [2, 5]: > 5.00
SMILES: Cc1nc(-c2ccccc2)c(C(=O)NC(Cc2ccccc2)C(=O)C(N)=O)o1 (stereo not drawn) [Compound 357, N-(4-amino-3,4-dioxo-1-phenylbutan-2-yl)-2-methyl-4-phenyloxazole-5-carboxamide]
% reduction compared to vehicle [3]: −13%

pIC50 [1]: > 5.00
pIC50 [2, 5]: > 5.00
SMILES: NC(=O)C(=O)C(Cc1ccccc1)NC(=O)c1cn(C(F)F)nc1-c1ccccc1 (stereo not drawn) [Compound 403, N-(4-amino-3,4-dioxo-1-phenylbutan-2-yl)-1-(difluoromethyl)-3-phenyl-1H-pyrazole-4-carboxamide]
% reduction compared to vehicle [3]: −29%

pIC50 [1]: > 5.00
pIC50 [2, 5]: > 5.00
SMILES: Cc1nc(-c2cccc(F)c2)c(C(=O)NC(Cc2ccccc2)C(=O)C(N)=O)o1 (stereo not drawn) [Compound 404, N-(4-amino-3,4-dioxo-1-phenylbutan-2-yl)-4-(3-fluorophenyl)-2-methyloxazole-5-carboxamide]
% reduction compared to vehicle [3]: −24%

SMILES: Cc1nc(-c2ccccc2F)c(C(=O)NC(Cc2ccccc2)C(=O)C(N)=O)o1 (stereo not drawn) [Compound 405, N-(4-amino-3,4-dioxo-1-phenylbutan-2-yl)-4-(2-fluorophenyl)-2-methyloxazole-5-carboxamide]
% reduction compared to vehicle [3]: −33%

pIC50 [1]: > 5.00
pIC50 [2, 5]: 4.60 to 5.00
SMILES: NC(=O)C(=O)C(Cc1ccccc1)NC(=O)c1cn(C2CC2)nc1-c1ccccc1 (stereo not drawn) [Compound 406, N-(4-amino-3,4-dioxo-1-phenylbutan-2-yl)-1-cyclopropyl-3-phenyl-1H-pyrazole-4-carboxamide]
% reduction compared to vehicle [3]: −25%

pIC50 [1]: > 5.00
pIC50 [2, 5]: 4.60 to 5.00
SMILES: Cn1cc(C(=O)NC(Cc2ccccc2)C(=O)C(N)=O)c(-c2ccccc2F)n1 (stereo not drawn) [Compound 484, N-(4-amino-3,4-dioxo-1-phenylbutan-2-yl)-3-(2-fluorophenyl)-1-methyl-1H-pyrazole-4-carboxamide]
% reduction compared to vehicle [3]: −35%

pIC50 [1]: 4.60 to 5.00
pIC50 [2, 5]: 4.60 to 5.00
SMILES: Cl.Cn1cc(C(=O)NC(Cc2ccccc2)C(=O)C(N)=O)c(-c2cccc(F)c2)n1 (stereo not drawn) [Compound 485, N-(4-amino-3,4-dioxo-1-phenylbutan-2-yl)-3-(3-fluorophenyl)-1-methyl-1H-pyrazole-4-carboxamide hydrochloride]
% reduction compared to vehicle [3]: −41%

pIC50 [1]: > 5.00
pIC50 [2, 5]: 4.60 to 5.00
SMILES: Cc1cc(C(=O)NC(Cc2ccccc2)C(=O)C(N)=O)n(-c2ccccn2)n1 (stereo not drawn) [Compound 495, N-(4-amino-3,4-dioxo-1-phenylbutan-2-yl)-3-methyl-1-(pyridin-2-yl)-1H-pyrazole-5-carboxamide]
% reduction compared to vehicle [3]: −27%
